Patent US20100324019A1 (priority 2007, published 2010)

Columns and labels:
Type in all cases: in vivo, human
[1] = tested on: premature CVD patients by MTHFR C677T genotype; experiment: Blood pressure in 16-week placebo controlled riboflavin intervention trial, premature CVD patients; settings: for Diastolic blood pressure / Systolic blood pressure: mean (SD)
From the text: (§1) Ethical approval was granted by both the Research Ethical Committee of the University of Ulster and Altnagelvin Hospital Trust, Londonderry, Northern Ireland. Premature CVD patients, males aged 55 years and females aged 65 years and under at time of event were recruited from the cardiac department of Altnagelvin hospital. Patients were indicated by a previous myocardial infarction (MI) or angina diagnosed by ECG changes. Potential participants (n=404) were screened for MTHFR genotype on the basis of a buccal swab sample. Those with the TT genotype were identified (n=54); these were age and sex matched with a similar number of patients with the CC or CT genotypes, resulting in a total of 197 patients who were invited to participate in the current intervention study (see FIG. 1). Exclusion criteria for all subjects were history of hepatic or renal disease, consumers of B-vitamin supplements, those taking medication known to interfere with folate metabolism, at least 3 months post MI prior to blood sampling. All volunteers provided written informed consent and completed a health and medical/lifestyle questionnaire which included questions regarding family history of CVD and smoking habits.
(§2) The study was a 16-week placebo controlled intervention trial. […] Non-fasting blood samples were collected at screening and post intervention either at Altnagelvin hospital, their workplace or their own homes.
(§3) Blood pressure measurements were recorded as the mean of two separate measurements taken 15 minutes apart using an Omcron 705CP electronic blood pressure monitor (Medisave, Dorset, UK). Weight (kg) and height in (m), were used to calculate BMI (weight (kg)/height^2 (m)). Waist circumference (cm) was also measured. All measurements were made using Seca approved equipment (Brosch Direct, Ltd, Peterborough, UK).
All statistical analysis was performed using the SPSS statistical package for the social sciences (version 11.0, SPSS UK Ltd., Chersey, United Kingdom). For normalisation purposes variables were log-transformed as appropriate prior to statistical analysis. One way ANOVA with Tukey's post hoc test was used to examine the differences in the baseline characteristics among the genotype groups. Categorical data were assessed using chi squared analysis. Correlation analysis was performed using bivariate Pearson correlation coefficients. […] P values<0.05 were considered significant.

[2] = tested on: premature CVD patients by MTHFR C677T genotype; experiment: Plasma homocysteine (immunoassay) in 16-week riboflavin intervention trial, premature CVD patients; settings: mean (SD)
From the text: as §1, §2
One 30 ml blood sample was collected from each patient, one 9 ml EDTA tube for plasma and washed red cells, one 4 ml EDTA tube for the preparation of red blood cell lysates and the measurement of haemoglobin (HB) and packed cell volume (PCV); one 8 ml serum separation tube for serum extraction, one 5 ml serum separation tube for lipid profile analysis and one 4 ml sodium citrate tube for coagulation screening. The 9 ml EDTA was immediately wrapped in tin foil and placed on ice. Samples were centrifuged within 2 hours of sampling at 3000 rpm for 15 minutes. Plasma was removed and stored at −80° C. for plasma homocysteine and PLP analysis. The buffy layer was removed for confirmation of MTHFR genotyping and stored at −20° C. The remaining red blood cells were thrice washed with phosphate buffered saline (PBS) with the supernatant and remaining buffy layer being discarded after each wash. […] Serum was removed and stored at −80° C. for serum folate.
Plasma homocysteine was measured by immunoassay using the Abbott Imx analyser (Leino A., 1999, “Fully automated measurement of total homocysteine in plasma and serum on the Abbott IMx analyzer.” Clin. Chem, 45, 569-71). Serum folate and red blood cell folate concentrations were determined by microbiological assay using the cryopreserved, microtitre plate method (Molloy et al, 1997, “Microbiological assay for serum, plasma, and red cell folate using cryopreserved, microtiter plate method.” Methods Enzymol, 281, 43-53). Plasma PLP was determined by reverse-phase high pressure liquid chromatography (HPLC) with fluorescence detection (Bates et al, 1999, “Plasma pyridoxal phosphate and pyridoxic acid and their relationship to plasma homocysteine in a representative sample of British men and women aged 65 years and over.” British Journal of Nutrition, 1, 191-201). Identification of the MTHFR C677T genotype was carried out using the polymerase chain reaction (PCR) amplification followed by HinF1 (Frosst et al, 1995, “A candidate genetic risk factor for vascular disease: A common mutation in methylenetetrahydrofolate reductase.” Nat Genetc, 10, 111-113). […] Coagulation screening was measured by ACI Instrumentation Laboratories. HB and PCV were measured using Sysmex XE-2100 (Sysmex, UK Ltd. Milton Keynes UK) analyser and lipid profiles were measured using Abbott Architect CI 8200 analyser (Abbott Laboratories, USA). For all assays, samples were analysed blind, in duplicate and within 1 year of collection. […]

[3] = tested on: healthy subjects by MTHFR C677T genotype; experiment: Blood pressure response to riboflavin intervention in healthy individuals; settings: for Diastolic blood pressure / Systolic blood pressure: healthy subjects, median
Procedure: as §3
Measurements were taken and recorded according to the procedures described in Example 1 above. The results obtained, namely the baseline characteristics of healthy subjects pre-screened and age-matched for MTHFR genotype (n=124), are shown in Table 4.
A placebo controlled intervention study in 81 healthy individuals was carried out.

[4] = CC genotype, premature CVD patients, Post 16 weeks riboflavin 1.6 mg/day, n = 32
[5] = CC genotype, premature CVD patients, Pre intervention, n = 32
[6] = CT genotype, premature CVD patients, Post 16 weeks riboflavin 1.6 mg/day, n = 35
[7] = CT genotype, premature CVD patients, Pre intervention, n = 35
[8] = TT genotype, premature CVD patients, 16 weeks low-dose riboflavin
[9] = TT genotype, premature CVD patients, Post 16 weeks riboflavin 1.6 mg/day, n = 25
[10] = TT genotype, premature CVD patients, Pre intervention, n = 25
[11] = estimated from the magnitude of blood pressure lowering in TT patients
[12] = CC genotype, After riboflavin 1.6 mg/d, 16 weeks
[13] = CC genotype, Before intervention
[14] = CT genotype, After riboflavin 1.6 mg/d, 16 weeks
[15] = CT genotype, Before intervention
[16] = TT genotype, After riboflavin 1.6 mg/d, 16 weeks
[17] = TT genotype, Before intervention

Compound: Cc1cc2nc3c(=O)[nH]c(=O)nc-3n(C[C@H](O)[C@H](O)[C@H](O)CO)c2cc1C [Riboflavin, riboflavin]
- Diastolic blood pressure [1, 4]: 80.4 (12.0) mmHg
- Systolic blood pressure [1, 4]: 133.4 (15.3) mmHg
- Diastolic blood pressure [1, 5]: 80.1 (8.9) mmHg
- Systolic blood pressure [1, 5]: 134.3 (14.9) mmHg
- effect on blood pressure (either systolic or diastolic) ([1]; CC genotype, premature CVD patients, following riboflavin administration): no significant reduction
- Diastolic blood pressure [1, 6]: 84.2 (9.2) mmHg
- Systolic blood pressure [1, 6]: 135.4 (15.4) mmHg
- Diastolic blood pressure [1, 7]: 86.0 (10.8) mmHg
- Systolic blood pressure [1, 7]: 136.2 (16.9) mmHg
- decrease in diastolic blood pressure [1, 8]: 8 units
- decrease in systolic blood pressure [1, 8]: 11 units
- effect on systolic and diastolic blood pressure [1, 8]: significant lowering
- Diastolic blood pressure [1, 9]: 80.2 (14.2) mmHg
- Systolic blood pressure [1, 9]: 131.6 (20.9) mmHg
- Diastolic blood pressure [1, 10]: 88.1 (14.2) mmHg
- Systolic blood pressure [1, 10]: 142.8 (22.1) mmHg
- lowering of risk of heart disease estimated from meta-analyses [1, 11]: 29%
- lowering of risk of stroke estimated from meta-analyses [1, 11]: 46%
- Homocysteine ([2]; CC genotype, Post 16 weeks riboflavin 1.6 mg/day, n = 32): 9.8 (3.6) μmol/l
- Homocysteine ([2]; CC genotype, Pre intervention, n = 32): 10.1 (3.9) μmol/l
- Homocysteine ([2]; CT genotype, Post 16 weeks riboflavin 1.6 mg/day, n = 35): 10.6 (6.3) μmol/l
- Homocysteine ([2]; CT genotype, Pre intervention, n = 35): 10.5 (3.8) μmol/l
- Homocysteine ([2]; TT genotype, Post 16 weeks riboflavin 1.6 mg/day, n = 25): 10.0 (3.1) μmol/l
- Homocysteine ([2]; TT genotype, Pre intervention, n = 25): 11.3 (4.4) μmol/l
- effect on systolic or diastolic blood pressure ([3]; healthy cohort with the TT genotype, 1.6 mg/day for 16 weeks): no significant systolic or diastolic blood pressure lowering effect
- effect on diastolic blood pressure ([3]; healthy individuals, CC group, 1.6 mg/day for 16 weeks): increase
- Diastolic blood pressure [3, 12]: 86.5 mmHg
- Systolic blood pressure [3, 12]: 143.5 mmHg
- Diastolic blood pressure [3, 13]: 80.5 mmHg
- Systolic blood pressure [3, 13]: 137.0 mmHg
- Diastolic blood pressure [3, 14]: 89.0 mmHg
- Systolic blood pressure [3, 14]: 150.0 mmHg
- Diastolic blood pressure [3, 15]: 87.0 mmHg
- Systolic blood pressure [3, 15]: 150.0 mmHg
- Diastolic blood pressure [3, 16]: 88.5 mmHg
- Systolic blood pressure [3, 16]: 145.0 mmHg
- Diastolic blood pressure [3, 17]: 88.5 mmHg
- Systolic blood pressure [3, 17]: 139.5 mmHg
